Experimental data taken from publication PMC4604124, “In Vitro Characterization of the Pharmacological Properties of the Anti-Cancer Chelator, Bp4eT, and Its Phase I Metabolites” (PLoS ONE, 2015).
Values joined by “and” are separate entries in the source; they are usually repeats but may differ in a detail not shown here. Identical values can stand only once. Like-named read-outs stand apart in the source and are kept apart here.

Experiments:
caspase 8 = experiment: Caspase activity, luminescent kit, caspase 8; format: cell-based, human; details: for kaspáza 8, raw signal, průměry / kaspáza 8, % kontroly / kaspáza 8, signal / viabilita, průměry: mean; for kaspáza 8, % kontroly / kaspáza 8, signal / viabilita / kaspáza 8, signal / viabilita, průměry: normalised to viability
Experimental: To assess the effect of the compounds on caspase activity, MCF-7 cells were incubated with 100 nM Bp4eT or its metabolites for 3, 24 or 72 h/37°C in 96-well plates, as described above. The cells were then lysed by adding 100 μL of cold lysis buffer (100 mM HEPES, 10 mM CHAPS, 10 mM D-L-dithiothreitol, pH 7.4) to 100 μL of medium in each well. Lysates were immediately frozen at -80°C. Thawed lysates were used to assess caspase activity using luminescent kits for caspases 3/7, 8 and 9 (Promega, Madison, WI, USA). The luminescence was measured using the Tecan Infinite 200M plate reader. Caspase activity in the experimental groups was corrected according to the cellular viability of each group and expressed as a percentage of activity of the untreated control (100%).

[1] = test system: HL-60 human promyelocytic leukemia cells; experiment: MTT cytotoxicity assay, HL-60 cells; format: cell-based; details: for IC50: MTT, read-out: IC50
Experimental: (§1) For cytotoxicity experiments, cancer cells were seeded at a density of 5,000 (MCF-7), 10,000 (HL-60) or 2,000 cells/well (HCT116 and A549) in 96-well plates (TPP) for 24 h/37°C prior to the addition of examined agents. The non-cancerous cells, 3T3 and H9c2 cells, were cultured for 24 h/37°C in 96-well plates at a density of 10,000 cells/well, the medium was then changed to serum- and pyruvate-free DMEM (Sigma-Aldrich) and incubated with the cells for another 24 h/37°C. The cytotoxic effects of Bp4eT and its metabolites were studied at different concentrations after a 72 h/37°C incubation. In order to aid the dissolution of the lipophilic ligands, 0.1% dimethyl sulfoxide (v/v) (DMSO; Sigma-Aldrich) was present in the culture medium of all groups. At this concentration, DMSO had no effect on cellular proliferation or viability.
(§2) The viability of cells were determined using an MTT assay (Sigma-Aldrich) according to previously established methods. The optical density of soluble MTT was measured at λ = 570 nm, subtracting the λ = 690 nm background using a Tecan Infinite 200M plate reader (Tecan Group, Männedorf, Switzerland). The viability or proliferation of experimental groups was expressed as a percentage of the untreated controls (100%).
(§3) SigmaStat for Windows 3.5 (Systat Software, San Jose, CA, USA) statistical software package was utilized to analyze results. The data are expressed as the mean ± SD of a given number of experiments. Statistical significance was determined using a one-way ANOVA with a Bonferroni post-hoc test or Student’s t-test. The results were considered to be statistically significant when p < 0.05. The IC50 values were calculated using CalcuSyn 2.0 software (Biosoft, Cambridge, UK). Cell cycle analysis was evaluated using MultiCycle AV Software (Phoenix Flow Systems, San Diego, CA, USA).

[2] = test system: HCT116 human colorectal carcinoma cells; experiment: MTT cytotoxicity assay, HCT116 cells; format: cell-based; details: for IC50: MTT
Experimental: as §1, §2, §3

[3] = 72 hodin, individual experiments by date

Structure (SMILES): CCN=CNN=C(c1ccccc1)c1ccccn1 [Bp4eA, N ^3-ethyl-N ^1-[phenyl(pyridin-2-yl)methylene]formamidrazone]
- kaspáza 8, raw signal, průměry (caspase 8; 24 hodin): 1384.75
- kaspáza 8, % kontroly (caspase 8; 24 hodin): 91.04 % kontroly
- kaspáza 8, signal / viabilita (caspase 8; 24 hodin, individual experiments by date): 16.2773 and 11.596 and 17.5273 and 12.5427
- kaspáza 8, signal / viabilita, průměry (caspase 8; 24 hodin): 14.4858
- kaspáza 8, raw signal (caspase 8; [3]): 6752 and 5806 and 7204 and 6996
- kaspáza 8, raw signal, průměry (caspase 8; 72 hodin): 6689.5
- kaspáza 8, % kontroly (caspase 8; 72 hodin): 103.53 % kontroly
- kaspáza 8, signal / viabilita (caspase 8; [3]): 72.5709 and 62.4033 and 77.4291 and 75.1935
- kaspáza 8, signal / viabilita, průměry (caspase 8; 72 hodin): 71.8992
- Therapeutic index, IC50 non-cancerous cells / IC50 neoplastic cells ([1]; 3T3/HL-60): 19.7
- Therapeutic index, IC50 non-cancerous cells / IC50 neoplastic cells ([1]; H9c2/HL-60): 8.0
- MTT, relative to control (0 = 100) ([1]; HL-60, 10 000 b/j, 3 μM, průměr (mean), sheet Bp4eA): 96.31
- MTT, relative to control (0 = 100) ([1]; HL-60, 10 000 b/j, 3 μM, single experiment (date), sheet Bp4eA): 98.9707 and 95.9296 and 99.8753 and 90.4839
- MTT, relative to control (0 = 100) ([1]; HL-60, 10 000 b/j, 10 μM, průměr (mean), sheet Bp4eA): 96.62
- MTT, relative to control (0 = 100) ([1]; HL-60, 10 000 b/j, 10 μM, single experiment (date), sheet Bp4eA): 97.2125 and 99.0002 and 94.4459 and 95.8253
- MTT, relative to control (0 = 100) ([1]; HL-60, 10 000 b/j, 30 μM, průměr (mean), sheet Bp4eA): 83.43
- MTT, relative to control (0 = 100) ([1]; HL-60, 10 000 b/j, 30 μM, single experiment (date), sheet Bp4eA): 80.8819 and 83.0208 and 86.8317 and 82.995
- MTT, relative to control (0 = 100) ([1]; HL-60, 10 000 b/j, 50 μM, průměr (mean), sheet Bp4eA): 62.90
- MTT, relative to control (0 = 100) ([1]; HL-60, 10 000 b/j, 50 μM, single experiment (date), sheet Bp4eA): 62.3054 and 62.5036 and 62.1604 and 64.6299
- MTT, relative to control (0 = 100) ([1]; HL-60, 10 000 b/j, 80 μM, průměr (mean), sheet Bp4eA): 16.51
- MTT, relative to control (0 = 100) ([1]; HL-60, 10 000 b/j, 100 μM, průměr (mean), sheet Bp4eA): 1.77
- MTT, relative to control (0 = 100) ([1]; HL-60, 10 000 b/j, 300 μM, průměr (mean), sheet Bp4eA): 1.66
- IC50 ([1]; HL-60, 10 000 b/j, single experiment (date), sheet Bp4eA): 51 µM and 54.1 µM and 55.3 µM
- IC50 ([1]; Homo sapiens, HL-60, 72 h, HL-60, 72 h/37°C, mean ± SD, n ≥ 4): 52.1 ± 3.3 µM
- IC50 ([1]; Homo sapiens, HL-60, HL-60, 10 000 b/j, průměr (mean), sheet Bp4eA): 52.1 µM
- IC50 ([1]; Homo sapiens, HL-60, HL-60, 10 000 b/j, single experiment (date), sheet Bp4eA): 47.9 µM
- Therapeutic index, IC50 non-cancerous cells / IC50 neoplastic cells ([2]; 3T3/HCT116): 9.2
- Therapeutic index, IC50 non-cancerous cells / IC50 neoplastic cells ([2]; H9c2/HCT116): 3.7
- MTT, relative to control (0 = 100) ([2]; HCT116, 2 000 b/j, 1 μM, průměr (mean), sheet Bp4eA): 97.58
- MTT, relative to control (0 = 100) ([2]; HCT116, 2 000 b/j, 1 μM, single experiment (date), sheet Bp4eA): 99.1509 and 100.455 and 96.4816 and 94.6996 and 96.3825 and 98.3223
- MTT, relative to control (0 = 100) ([2]; HCT116, 2 000 b/j, 3 μM, průměr (mean), sheet Bp4eA): 97.04
- MTT, relative to control (0 = 100) ([2]; HCT116, 2 000 b/j, 3 μM, single experiment (date), sheet Bp4eA): 97.9686 and 98.7085 and 92.1521 and 93.3267 and 100.675 and 99.4316
- MTT, relative to control (0 = 100) ([2]; HCT116, 2 000 b/j, 10 μM, průměr (mean), sheet Bp4eA): 94.04
- MTT, relative to control (0 = 100) ([2]; HCT116, 2 000 b/j, 10 μM, single experiment (date), sheet Bp4eA): 94.463 and 96.9011 and 92.7169 and 93.3863 and 93.3144 and 93.4876
- MTT, relative to control (0 = 100) ([2]; HCT116, 2 000 b/j, 30 μM, průměr (mean), sheet Bp4eA): 89.95
- MTT, relative to control (0 = 100) ([2]; HCT116, 2 000 b/j, 30 μM, single experiment (date), sheet Bp4eA): 90.1675 and 87.4242 and 84.0067 and 87.0754 and 95.7934 and 95.2315
- MTT, relative to control (0 = 100) ([2]; HCT116, 2 000 b/j, 100 μM, průměr (mean), sheet Bp4eA): 58.40
- MTT, relative to control (0 = 100) ([2]; HCT116, 2 000 b/j, 100 μM, single experiment (date), sheet Bp4eA): 42.8559 and 58.6495 and 64.6288 and 67.4584
- MTT, relative to control (0 = 100) ([2]; HCT116, 2 000 b/j, 300 μM, průměr (mean), sheet Bp4eA): 9.79
- MTT, relative to control (0 = 100) ([2]; HCT116, 2 000 b/j, 1000 μM, průměr (mean), sheet Bp4eA): 2.29
- IC50 ([2]; HCT116, 2 000 b/j, single experiment (date), sheet Bp4eA): 115 µM and 125 µM (2×)
- IC50 ([2]; Homo sapiens, HCT-116, 72 h, HCT116, 72 h/37°C, mean ± SD, n ≥ 4): 112 ± 20.9 µM
- IC50 ([2]; Homo sapiens, HCT-116, HCT116, 2 000 b/j, průměr (mean), sheet Bp4eA): 112 µM
- IC50 ([2]; Homo sapiens, HCT-116, HCT116, 2 000 b/j, single experiment (date), sheet Bp4eA): 80.9 µM
